According to ChEMBL document CHEMBL5532643, “Design and synthesis of etrasimod derivatives as potent antibacterial agents against Gram-positive bacteria” (Eur J Med Chem, 2024):
≈ marks a conversion by molar mass, not a printed value. Where “and” joins values, the source holds several entries; their conditions need not be identical. Identical values can stand only once. Calls of active or inactive are those of the source. The calls are words filed in the database; no cut-off is given here.

Key:
Staphylococcus aureus [1] = experiment: Antibacterial activity against Staphylococcus aureus ATCC 25923 assessed as reduction in bacterial growth incubated for 18 to 20 hrs by broth microdilution assay; format: functional; conditions: time 18-20 hrs
Staphylococcus aureus [2] = experiment: Antibiofilm activity against Staphylococcus aureus ATCC 25923 assessed as inhibition of biofilm viability at 100 uM incubated for 18 to 20 hrs by resazurin staining based assay; format: functional; conditions: time 18-20 hrs
[3] = system: Staphylococcus epidermidis; experiment: Antibacterial activity against […] Staphylococcus epidermidis RP62A assessed as reduction in bacterial growth incubated for 18 to 20 hrs by broth microdilution assay; format: functional; conditions: time 18-20 hrs
Enterococcus faecalis [4] = experiment: Antibacterial activity against vancomycin-resistant Enterococcus faecalis ATCC 51575 assessed as reduction in bacterial growth incubated for 18 to 20 hrs by broth microdilution assay; format: functional; conditions: time 18-20 hrs
Pseudomonas aeruginosa = experiment: Antibacterial activity against Pseudomonas aeruginosa ATCC 15442 assessed as reduction in bacterial growth incubated for 18 to 20 hrs by broth microdilution assay; format: functional; conditions: time 18-20 hrs
Acinetobacter baumannii = experiment: Antibacterial activity against Acinetobacter baumannii NCTC 13423 assessed as reduction in bacterial growth incubated for 18 to 20 hrs by broth microdilution assay; format: functional; conditions: time 18-20 hrs
Staphylococcus aureus [5] = experiment: Bactericidal activity against Staphylococcus aureus ATCC 25923 assessed as reduction in bacterial growth at 0.5 to 8 times MIC incubated for 24 hrs by time-kill assay; format: functional
Enterococcus faecalis [6] = experiment: Bactericidal activity against Enterococcus faecalis ATCC 29212 assessed as reduction in bacterial growth at 0.5 to 8 times MIC incubated for 24 hrs by time-kill assay; format: functional
Staphylococcus aureus [7] = experiment: Bactericidal activity against Staphylococcus aureus ATCC 25923 assessed as reduction in viable bacterial count incubated for 2 hrs by time-kill assay; format: functional, organism-based
Staphylococcus aureus [8] = experiment: Bactericidal activity against Staphylococcus aureus ATCC 25923 assessed as log reduction in colony forming units at 4 to 8 times MIC measured after 1 to 2 hrs by time kill-assay; format: functional; conditions: time 1-2 hrs
Staphylococcus aureus [9] = experiment: Bactericidal activity against Staphylococcus aureus ATCC 25923 assessed as log reduction in colony forming units at 0.5 to 8 times MIC measured after 24 hrs by time kill-assay; format: functional
Cell membrane [10] = experiment: Induction of cytoplasmic membrane depolarization in Staphylococcus aureus ATCC 25923 assessed as increase in fluorescence intensity at 4 times MIC measured for 30 mins by DiSC3(5) dye based fluorescence method; format: cell membranes
Cell membrane [11] = experiment: Induction of cell membrane damage in Staphylococcus aureus ATCC 25923 at 8 times MIC incubated for 2 hrs by scanning electron microscopic analysis; format: cell membranes
Staphylococcus aureus [12] = experiment: Synergistic antibacterial activity against Staphylococcus aureus ATCC 25923 assessed as gentamicin MIC incubated for 18 to 20 hrs by checkboard assay; format: functional; conditions: time 18-20 hrs
Staphylococcus aureus [13] = experiment: Synergistic antibacterial activity against methicillin-resistant Staphylococcus aureus ATCC 43300 assessed as gentamicin MIC incubated for 18 to 20 hrs by checkboard assay; format: functional; conditions: time 18-20 hrs
Enterococcus faecalis [14] = experiment: Synergistic antibacterial activity against Enterococcus faecalis ATCC 29212 assessed as vancomycin MIC incubated for 18 to 20 hrs by checkboard assay; format: functional; conditions: time 18-20 hrs
Staphylococcus aureus [15] = experiment: Synergistic antibacterial activity against methicillin-resistant Staphylococcus aureus ATCC 43300 assessed as linezolid MIC incubated for 18 to 20 hrs by checkboard assay; format: functional; conditions: time 18-20 hrs
Staphylococcus aureus [16] = experiment: Synergistic antibacterial activity against Staphylococcus aureus ATCC 25923 incubated for 18 to 20 hrs in presence of vancomycin by checkboard assay; format: functional; conditions: time 18-20 hrs
Staphylococcus aureus [17] = experiment: Synergistic antibacterial activity against methicillin-resistant Staphylococcus aureus ATCC 43300 incubated for 18 to 20 hrs in presence of vancomycin by checkboard assay; format: functional; conditions: time 18-20 hrs
Staphylococcus aureus [18] = experiment: Synergistic antibacterial activity against methicillin-resistant Staphylococcus aureus ATCC 43300 incubated for 18 to 20 hrs in presence of gentamicin by checkboard assay; format: functional; conditions: time 18-20 hrs
Staphylococcus aureus [19] = experiment: Synergistic antibacterial activity against methicillin-resistant Staphylococcus aureus ATCC 43300 incubated for 18 to 20 hrs in presence of ciprofloxacin by checkboard assay; format: functional; conditions: time 18-20 hrs
Staphylococcus aureus [20] = experiment: Synergistic antibacterial activity against methicillin-resistant Staphylococcus aureus ATCC 43300 incubated for 18 to 20 hrs in presence of linezolid by checkboard assay; format: functional; conditions: time 18-20 hrs
Enterococcus faecalis [21] = experiment: Synergistic antibacterial activity against Enterococcus faecalis ATCC 29212 incubated for 18 to 20 hrs in presence of linezolid by checkboard assay; format: functional; conditions: time 18-20 hrs
Staphylococcus aureus [22] = experiment: Synergistic antibacterial activity against Staphylococcus aureus ATCC 25923 assessed as fractional inhibitory concentration index incubated for 18 to 20 hrs in presence of gentamicin by checkboard assay; format: functional; conditions: time 18-20 hrs
Staphylococcus aureus [23] = experiment: Synergistic antibacterial activity against methicillin-resistant Staphylococcus aureus ATCC 43300 assessed as fractional inhibitory concentration index incubated for 18 to 20 hrs in presence of gentamicin by checkboard assay; format: functional; conditions: time 18-20 hrs
Staphylococcus aureus [24] = experiment: Synergistic antibacterial activity against Staphylococcus aureus ATCC 25923 assessed as fractional inhibitory concentration index incubated for 18 to 20 hrs in presence of vancomycin by checkboard assay; format: functional; conditions: time 18-20 hrs
Enterococcus faecalis [25] = experiment: Synergistic antibacterial activity against Enterococcus faecalis ATCC 29212 assessed as fractional inhibitory concentration index incubated for 18 to 20 hrs in presence of vancomycin by checkboard assay; format: functional; conditions: time 18-20 hrs
Staphylococcus aureus [26] = experiment: Synergistic antibacterial activity against Staphylococcus aureus ATCC 25923 assessed as fractional inhibitory concentration index incubated for 18 to 20 hrs in presence of ciprofloxacin by checkboard assay; format: functional; conditions: time 18-20 hrs
Staphylococcus aureus [27] = experiment: Synergistic antibacterial activity against methicillin-resistant Staphylococcus aureus ATCC 43300 assessed as fractional inhibitory concentration index incubated for 18 to 20 hrs in presence of ciprofloxacin by checkboard assay; format: functional; conditions: time 18-20 hrs
Enterococcus faecalis [28] = experiment: Synergistic antibacterial activity against Enterococcus faecalis ATCC 29212 assessed as fractional inhibitory concentration index incubated for 18 to 20 hrs in presence of ciprofloxacin by checkboard assay; format: functional; conditions: time 18-20 hrs
Staphylococcus aureus [29] = experiment: Synergistic antibacterial activity against Staphylococcus aureus ATCC 25923 assessed as fractional inhibitory concentration index incubated for 18 to 20 hrs in presence of linezolid by checkboard assay; format: functional; conditions: time 18-20 hrs
Staphylococcus aureus [30] = experiment: Synergistic antibacterial activity against methicillin-resistant Staphylococcus aureus ATCC 43300 assessed as fractional inhibitory concentration index incubated for 18 to 20 hrs in presence of linezolid by checkboard assay; format: functional; conditions: time 18-20 hrs
[31] = Cytotoxicity against human THP-1 cells assessed as reduction in cell viability incubated for 24 hrs by resazurin staining based analysis; format: toxicity
Erythrocyte = experiment: Hemolytic activity in mouse RBC assessed as hemolysis at 62.5 uM incubated for 1 hr; format: toxicity, cell-based
[32] = Selectivity index, ratio of CC50 for cytotoxicity against human THP-1 cells assessed as reduction in cell viability to MIC for antibacterial activity against methicillin-resistant Staphylococcus epidermidis assessed as reduction in bacterial growth; format: toxicity, cell-based; conditions: read-out: Selectivity Index
[33] = Toxicity in Caenorhabditis elegans AU37 assessed as worms survival at 10 uM measured after 72 hrs
Staphylococcus aureus [34] = experiment: Antimicrobial activity against Staphylococcus aureus ATCC 25923 infected in Caenorhabditis elegans AU37 assessed as reduction in number of viable bacteria at 20 uM incubated for 18 hrs; format: functional, organism-based
Staphylococcus aureus [35] = experiment: Antimicrobial activity against methicillin-resistant Staphylococcus aureus ATCC 43300 infected in Caenorhabditis elegans AU37 assessed as reduction in bacterial burden at 20 uM incubated for 18 hrs; format: functional; design: scale not given: the % may be the effect or the level left

Compound: O=C(O)c1cc2cc(OCc3ccc(C4CCCCC4)c(C(F)(F)F)c3)ccc2[nH]1
- MIC (Staphylococcus aureus [1]): 5 µM and 2.1 µg/mL
- inhibition at 100 µM (Staphylococcus aureus [2]): > 90%
- MIC [3]: 2.5 µM (≈ 1.04 µg/mL)
- MIC (Enterococcus faecalis [4]): 10 µM (≈ 4.17 µg/mL)
- MIC (Pseudomonas aeruginosa): > 200 µM
- MIC (Acinetobacter baumannii): > 200 µM
- MBC (Staphylococcus aureus [5]): 5 µM (≈ 2.09 µg/mL)
- MBC (Enterococcus faecalis [6]): 5 µM (≈ 2.09 µg/mL)
- Activity (Staphylococcus aureus [7]): Dose-Dependent Effect
- log(activity) (Staphylococcus aureus [8]): >3
- log(activity) (Staphylococcus aureus [9]): >5
- Activity (Cell membrane [10]): inactive
- Activity (Cell membrane [11]): inactive
- MIC (Staphylococcus aureus [12]): 0.5 µg/mL
- MIC (Staphylococcus aureus [13]): 32 µg/mL
- MIC (Enterococcus faecalis [14]): 2.5 µM
- MIC (Staphylococcus aureus [15]): 5 µM
- MIC (Staphylococcus aureus [16]): 2.2 µM
- MIC (Staphylococcus aureus [17]): 2.5 µM
- MIC (Staphylococcus aureus [18]): 0.625 µM
- MIC (Staphylococcus aureus [19]): 1.25 µM
- MIC (Staphylococcus aureus [20]): 1.25 µM
- MIC (Enterococcus faecalis [21]): 5 µM
- fractional inhibitory concentration index (FICI) (Staphylococcus aureus [22]): 0.5
- fractional inhibitory concentration index (FICI) (Staphylococcus aureus [23]): <=0.5
- fractional inhibitory concentration index (FICI) (Staphylococcus aureus [24]): 0.75
- fractional inhibitory concentration index (FICI) (Enterococcus faecalis [25]): 2
- fractional inhibitory concentration index (FICI) (Staphylococcus aureus [26]): 0.625
- fractional inhibitory concentration index (FICI) (Staphylococcus aureus [27]): 1
- fractional inhibitory concentration index (FICI) (Enterococcus faecalis [28]): 0.75
- fractional inhibitory concentration index (FICI) (Staphylococcus aureus [29]): 1
- fractional inhibitory concentration index (FICI) (Staphylococcus aureus [30]): 1
- CC50 at 24 h [31]: > 100 µM
- Activity (Erythrocyte): Non-Toxic
- selectivity ratio [32]: > 12
- Activity [33]: Non-Toxic
- Activity (Staphylococcus aureus [34]): Active
- Activity (Staphylococcus aureus [35]): 88%
